Values of other authors as cited in US12378579B2, “Method to produce the anti-microbial diterpenoid leubethanol and related serrulatane-type diterpenes” (priority 2020, dated 2025).

Test system: multi-drug-resistant tuberculosis
Details: pure compound from Leucophyllum frutescens; background statement

Structure (SMILES): CC(C)=CCC[C@H](C)[C@@H]1CC[C@@H](C)c2c(O)cc(C)cc21 [leubethanol]
- activity against multi-drug resistant tuberculosis: demonstrated activity
